Data on 16 compounds can be found in ChEMBL document CHEMBL3638687, “N-biphenylmethylindole modulators of PPARG” (2015).

The structures appear in SMILES notation.

The assay concerns the target T1, Peroxisome proliferator-activated receptor gamma (Homo sapiens, UniProt P37231).
T1 sequence (P37231 whole entry): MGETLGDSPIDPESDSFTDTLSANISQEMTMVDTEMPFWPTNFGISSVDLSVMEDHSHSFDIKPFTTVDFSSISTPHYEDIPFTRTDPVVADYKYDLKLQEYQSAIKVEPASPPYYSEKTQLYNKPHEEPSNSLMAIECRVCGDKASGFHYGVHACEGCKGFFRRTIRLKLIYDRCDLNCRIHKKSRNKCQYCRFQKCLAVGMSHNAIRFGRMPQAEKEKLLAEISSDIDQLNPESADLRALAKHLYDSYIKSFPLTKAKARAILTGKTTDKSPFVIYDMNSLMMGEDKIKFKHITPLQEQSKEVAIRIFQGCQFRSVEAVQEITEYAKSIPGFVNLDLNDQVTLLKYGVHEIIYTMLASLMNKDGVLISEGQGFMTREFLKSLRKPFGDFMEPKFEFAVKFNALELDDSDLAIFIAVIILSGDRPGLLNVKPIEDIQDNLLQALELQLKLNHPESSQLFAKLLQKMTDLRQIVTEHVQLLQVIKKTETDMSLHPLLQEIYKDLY
In words: Lanthascreen Competitive Binding Assay: The assay was performed according to manufacturer protocol. A mixture of […], 5 nM Tb-GST-antibody, 5 nM Fluormone Pan-PPAR Green, and serial dilutions of the experimental compound, beginning at 10 μM downwards, was added to wells of black 384-well low-volume plates (Greiner) to a total volume of 18 μL. All dilutions were made in TR-FRET assay buffer C. DMSO at 2% final concentration was used as a no-ligand control. Experiment was performed in triplicate, and incubated for 2 hours in the dark prior to assay read in Perkin Elmer ViewLux ultra HTS microplate reader. FRET signal was measured by excitation at 340 nm and emission at 520 nm for fluorescein and 490 nm for terbium. Fold change over DMSO was calculated using GraphPad Prism Software (La Jolla, Calif.) by calculating 520 nm/490 nm ratio. Graphs were plotted as fold change of FRET signal for compound treatment over DMSO-only control.
With `CCC(NC(=O)c1ccc2c(c1)c(C)c(C)n2Cc1ccc(-c2ccccc2C#N)cc1)c1ccccc1` (stereo unspecified), the IC50 was 0.54 nM. As for `Cc1c(C)n(Cc2ccc(-c3cccnc3)cc2)c2ccc(C(=O)N[C@@H](C)c3ccc([N+](=O)[O-])cc3)cc12`, the figure is 150 nM; as for `Cc1c(C)n(Cc2ccc(-c3ccccc3C(=O)O)cc2)c2ccc(C(=O)NCc3ccc(F)c(F)c3)cc12`, 31 nM; as for `CCC(NC(=O)c1ccc2c(c1)c(C)cn2Cc1ccc(-c2ccccc2C(=O)O)cc1)c1ccccc1` (stereo unspecified), 2 nM. The same measure for `Cc1cn(Cc2ccc(-c3ccccc3C(=O)O)cc2)c2ccc(C(=O)N[C@@H](C)c3ccc([N+](=O)[O-])cc3)cc12`: 126 nM. Consider `CC[C@@H](NC(=O)c1ccc2c(c1)c(C)c(C)n2Cc1ccccc1-c1cccc(C(=O)O)c1)c1ccccc1`, for which the IC50 was 20 nM. For `CC[C@H](NC(=O)c1ccc2c(c1)c(C)c(C)n2Cc1ccccc1-c1cccc(C(=O)O)c1)c1ccccc1`, the IC50 is 80 nM. With `CC[C@@H](NC(=O)c1ccc2c(c1)c(C)c(C)n2Cc1ccccc1-c1ccc(C(=O)O)cc1)c1ccccc1`, the IC50 was 80 nM.

In the case of `CC[C@H](NC(=O)c1ccc2c(c1)c(C)c(C)n2Cc1ccccc1-c1ccc(C(=O)O)cc1)c1ccccc1`, the IC50 was above 1000 nM. In the case of `Cc1c(C)n(Cc2ccc(-c3ccccc3C(=O)O)cc2)c2ccc(C(=O)N[C@@H](C)c3cccc(OC(C)C)c3)cc12`, the IC50 is 19 nM. `Cc1c(C)n(Cc2ccc(-c3ccccc3C(=O)O)cc2)c2ccc(C(=O)N[C@@H](C)c3ccc(OC(C)(C)C)cc3)cc12`: the IC50 is 449 nM. As for `Cc1c(C)n(Cc2ccc(-c3ccccc3C(=O)O)cc2)c2ccc(C(=O)N[C@@H](C)c3ccc(OC(C)C)cc3)cc12`, the figure is 34 nM.

As to `Cc1c(C)n(Cc2ccc(-c3ccccc3C(=O)O)cc2)c2ccc(C(=O)N[C@@H](C)C3CCN(C(=O)NCc4ccccc4)CC3)cc12`, the IC50 was 805 nM. As for `Cc1c(C)n(Cc2ccc(-c3ccccc3C(=O)O)cc2)c2ccc(C(=O)N[C@H]3CCN(C(=O)OCc4ccccc4)C3)cc12`, the figure is 536 nM; as for `Cc1c(C)n(Cc2ccc(-c3ccccc3C(=O)O)cc2)c2ccc(C(=O)N[C@@H](C)c3ccc(Cl)c(C(F)(F)F)c3)cc12`, 15 nM.

As for `CCC(NC(=O)c1ccc2c(c1)cc(C)n2Cc1ccc(-c2ccccc2C(=O)O)cc1)c1ccccc1` (stereo unspecified), the IC50 was 2 nM.
